Source: patent publication US12275733B2, “Substituted pyrido[3,4-b]indoles for the treatment of cartilage disorders” (Sanofi, priority 2016, dated 2025)

Test system: ATDC5 cells
Test: Chondrogenesis activity assay in ATDC5 cells (collagen type II induction, immunofluorescence)
Format: cell-based, mouse
Conditions: Mus musculus; for EC50: collagen type II induction in ATDC5 cells, concentration reaching 50% of maximum induction; for Emax: maximum percent induction of collagen type II relative to internal reference compound at 10 μM, ATDC5 cells
Protocol: A) Chondrogenesis Activity Assay in ATDC5 Cells
The chondrogenic potential of the compounds of the invention was determined using clonal mouse chondrogenic ATDC5 cells (T. Atsumi et al., Cell Differ. Dev. 1990, 30, 109-116). ATDC5 cells are derived from mouse embryonic AT805 teratocarcinoma cells and are used frequently to study the multistep chondrogenic differentiation process from precursor cells into chondrocytes (C. Shukunami et al., Exp. Cell Res. 1998, 241, 1-11; H. Aklyami et al., J. Bone Miner. Res. 1996, 11, 22-28; H. Akiyami et al., Biochem. Biophys. Res. Commun. 1997, 235, 142-147; C. Shukunami et al., J. Cell Biol. 1996, 133, 457-468; C. Shukunami et al., J. Bone Miner. Res. 1997, 12, 1174-1188). Undifferentiated ATDC5 cells grow in vitro until confluence, showing a fibroblast-like morphology. In the presence of insulin, cells undergo transient condensation and form numerous nodular structures (cartilage nodules). The cartilagenous nature of these nodules was shown by Alcian Blue staining as evidence of the production of proteoglycan (aggrecan) and collagen type II expression (by expression analysis), both molecular markers of chondrocytes (C. Shukunami et al., J. Cell Biol. 1996, 133, 457-468).
Chondrogenic differentiation of ATDC5 cells into chondrocytes by the compounds of the invention was determined by measuring the induction of type II collagen protein as a marker of chondrocytes, a structural component of the extracellular matrix which constitutes more than 80% of cartilage mass (D. R. Eyre, Clin. Orthop. Relat. Res. 2004, 427 Suppl, S118-S122). ATDC5 cells were obtained from RIKEN and cultured as monolayer in basal culture medium (Dulbecco's Modified Eagle Medium/Nutrient Mixture F-12 (DMEM/F12, Invitrogen, #31331-093) supplemented with 10 μg/ml Transferrin (Roche, #10652 202001), 3×10E−8 M sodium seienite (Sigma, #S-5261) and 5% Fetal Calf Serum (FCS Gold, PAA, #A15-251)), at 37° C., and 5% CO2 in plastic flasks of 75 cm^2 or 300 cm^2 subconfluently for propagation. ATDC5 cells were harvested and resuspended in differentiation culture medium that consisted of basal culture medium complemented with 10 μg/ml insulin (Sigma, #19278), to initiate chondrogenic differentiation. For studying the effect of test compounds, the ATDC5 cells were plated in 96-well plates (3.0×10E4 cells per well in 200 μl of differentiation culture medium). Test compounds dissolved in DMSO were added to yield increasing compound concentrations, typically from 40 nM to 10 μM, and a final DMSO concentration of 0.1%. On each 96-well plate, control wells containing no test compound but the same concentration of DMSO, i.e. untreated cells, were included and used as reference for the determination of the effect of the test compounds on the cells, and wells containing an internal reference compound at a concentration of 10 μM were included and used as positive control and for standardizing the results. Cells in the wells were incubated for 4 days at 37° C., and 5% CO2, followed by quantification of intracellular collagen type II.
Quantification of collagen type II in the ATDC5-cells was done by immunofluorescence staining of collagen type II, and fluorescence intensity was measured using a cellular high content imaging system (ImageXpress, Molecular Device). For immunofluorescence staining of intracellular collagen, medium was removed after compound incubation and cells were fixed with 200 μl/well methanol/water (95%/5%). Cells were permeabilized in 200 μl/well phosphate-buffered saline (PBS) containing 0.2% Triton X100 for 15 min and, after removal of the solution, blocked for 30 min with 200 μl/well PBS/0.2% Triton X100 containing 1% bovine serum albumin (BSA) to avoid unspecific binding. After the blocking step, the solution was removed and collagen type II staining solution was added. […]

Row | Compound | EC50 [µM] | Emax [%]
1 | Cc1nccc2c1[nH]c1c(-c3ccc(Cl)nc3)cc(Cl)cc12 [Example 77, 6-Chloro-8-(6-chloro-pyridin-3-yl)-1-methyl-9H-pyrido[3,4-b]indole] | 0.58 | > 80
2 | CCn1c2c(-c3cncc(Cl)c3)cc(Cl)cc2c2ccnc(C)c21 [Example 78, 6-Chloro-8-(5-chloro-pyridin-3-yl)-9-ethyl-1-methyl-9H-pyrido[3,4-b]indole] | > 10 | < 20
3 | CCn1c2c(-c3ccc(Cl)nc3)cc(Cl)cc2c2ccnc(C)c21 [Example 79, 6-Chloro-8-(6-chloro-pyridin-3-yl)-9-ethyl-1-methyl-9H-pyrido[3,4-b]indole] | 3.9 | > 80
4 | FC(F)(F)Cn1c2cnccc2c2cc(Cl)cc(-c3ccc(NC4CCCCC4)nc3)c21 [Example 80, (5-[6-Chloro-9-(2,2,2-trifluoro-ethyl)-9H-pyrido[3,4-b]indol-8-yl]-pyridin-2-yl)-cyclohexyl-amine] | 1.2 | 20 to 50
5 | FC(F)(F)Cn1c2cnccc2c2cc(Cl)cc(-c3ccc(N4CCCC4)nc3)c21 [Example 81, 6-Chloro-8-(6-pyrrolidin-1-yl-pyridin-3-yl)-9-(2,2,2-trifluoro-ethyl)-9H-pyrido[3,4-b]indole] | 4.1 | > 80
6 | Fc1cncc(-c2cc(Cl)cc3c4ccncc4n(CC(F)(F)F)c23)c1 [Example 82, 6-Chloro-8-(5-fluoro-pyridin-3-yl)-9-(2,2,2-trifluoro-ethyl)-9H-pyrido[3,4-b]indole] | 2 | 20 to 50
7 | Cc1nc(Cl)ccc1-c1cc(Cl)cc2c3ccncc3n(CC(F)(F)F)c12 [Example 83, 6-Chloro-8-(6-chloro-2-methyl-pyridin-3-yl)-9-(2,2,2-trifluoro-ethyl)-9H-pyrido[3,4-b]indole] | 2.1 | 20 to 50
8 | CN(C)c1ccc(-c2cc(Cl)cc3c4ccncc4n(CC(F)(F)F)c23)cn1 [Example 84, (5-[6-Chloro-9-(2,2,2-trifluoro-ethyl)-9H-pyrido[3,4-b]indol-8-yl]-pyridin-2-yl)-dimethyl-amine] | > 10 | 20 to 50
9 | COc1ncc(-c2cc(Cl)cc3c4ccncc4n(CC(F)(F)F)c23)cc1F [Example 85, 6-Chloro-8-(5-fluoro-6-methoxy-pyridin-3-yl)-9-(2,2,2-trifluoro-ethyl)-9H-pyrido[3,4-b]indole] | > 10 | 20 to 50
10 | FC(F)(F)Cn1c2cnccc2c2cc(Cl)cc(-c3ccc(N4CCOCC4)nc3)c21 [Example 86, 6-Chloro-8-(6-morpholin-4-yl-pyridin-3-yl)-9-(2,2,2-trifluoro-ethyl)-9H-pyrido[3,4-b]indole] | 0.75 | > 80
11 | CN1CCN(c2ccc(-c3cc(Cl)cc4c5ccncc5n(CC(F)(F)F)c34)cn2)CC1 [Example 87, 6-Chloro-8-[6-(4-methyl-piperazin-1-yl)-pyridin-3-yl]-9-(2,2,2-trifluoro-ethyl)-9H-pyrido[3,4-b]indole] | 1.5 | 50 to 80
12 | FC(F)(F)Cn1c2cnccc2c2cc(Cl)cc(-c3ccc(C(F)(F)F)nc3)c21 [Example 88, 6-Chloro-9-(2,2,2-trifluoro-ethyl)-8-(6-trifluoromethyl-pyridin-3-yl)-9H-pyrido[3,4-b]indole] | 1.7 | < 20
13 | FC(F)(F)Cn1c2cnccc2c2cc(Cl)cc(-c3ccc(N4CCCCC4)nc3)c21 [Example 89, 6-Chloro-8-(3,4,5,6-tetrahydro-2H-[1,2′]bipyridinyl-5′-yl)-9-(2,2,2-trifluoro-ethyl)-9H-pyrido[3,4-b]indole] | > 10 | > 80
14 | CC#CCn1c2cnccc2c2cc(Cl)cc(-c3ccc(Cl)nc3)c21 [Example 90, 9-But-2-ynyl-6-chloro-8-(6-chloro-pyridin-3-yl)-9H-pyrido[3,4-b]indole] | > 10 | < 20
15 | CCn1c2c(-c3ccc(OC)nc3)cc(Cl)cc2c2ccnc(C)c21 [Example 91, 6-Chloro-9-ethyl-8-(6-methoxy-pyridin-3-yl)-1-methyl-9H-pyrido[3,4-b]indole] | 1.5 | > 80
16 | CCn1c2c(-c3cnc4[nH]ccc4c3)cc(Cl)cc2c2ccnc(C)c21 [Example 92, 6-Chloro-9-ethyl-1-methyl-8-(1H-pyrrolo[2,3-b]pyridin-5-yl)-9H-pyrido[3,4-b]indole] | 2.5 | > 80
17 | CCn1c2c(-c3ccc(N4CCOCC4)nc3)cc(Cl)cc2c2ccnc(C)c21 [Example 93, 6-Chloro-9-ethyl-1-methyl-8-(6-morpholin-4-yl-pyridin-3-yl)-9H-pyrido[3,4-b]indole] | 2.2 | > 80
18 | COc1ccc(-c2cc(Cl)cc3c2[nH]c2c(C)nccc23)cn1 [Example 94, 6-Chloro-8-(6-methoxy-pyridin-3-yl)-1-methyl-9H-pyrido[3,4-b]indole] | 0.75 | > 80
19 | Cc1ccc(-c2cc(Cl)cc3c2[nH]c2c(C)nccc23)cn1 [Example 95, 6-Chloro-1-methyl-8-(6-methyl-pyridin-3-yl)-9H-pyrido[3,4-b]indole] | 0.68 | 50 to 80
20 | Cc1nccc2c1[nH]c1c(-c3ccc(N4CCOCC4)nc3)cc(Cl)cc12 [Example 96, 6-Chloro-1-methyl-8-(6-morpholin-4-yl-pyridin-3-yl)-9H-pyrido[3,4-b]indole] | 0.85 | 50 to 80
21 | Cc1nccc2c1[nH]c1c(-c3ccc(Cl)nc3Cl)cc(Br)cc12 [Example 98, 6-Bromo-8-(2,6-dichloro-pyridin-3-yl)-1-methyl-9H-pyrido[3,4-b]indole] | 2.4 | > 80
22 | COc1ncc(-c2cc(Cl)cc3c2[nH]c2c(C)nccc23)cc1F [Example 99, 6-Chloro-8-(5-fluoro-6-methoxy-pyridin-3-yl)-1-methyl-9H-pyrido[3,4-b]indole] | > 10 | < 20
23 | Cc1nccc2c1[nH]c1c(-c3ccc(C#N)nc3)cc(Cl)cc12 [Example 100, 5-(6-Chloro-1-methyl-9H-pyrido[3,4-b]indol-8-yl)-pyridine-2-carbonitrile] | 1 | < 20
24 | Cc1nccc2c1[nH]c1c(-c3ccc(N4CCCCC4)nc3)cc(Cl)cc12 [Example 101, 6-Chloro-1-methyl-8-(3,4,5,6-tetrahydro-2H-[1,2′]bipyridinyl-5′-yl)-9H-pyrido[3,4-b]indole] | 8.2 | 20 to 50
25 | Cc1nccc2c1[nH]c1c(-c3ccc(OC(C)C)nc3)cc(Cl)cc12 [Example 102, 6-Chloro-8-(6-isopropoxy-pyridin-3-yl)-1-methyl-9H-pyrido[3,4-b]indole] | 2.1 | 20 to 50
26 | COc1ccc(-c2cc(Cl)cc3c2[nH]c2c(C)nccc23)c(Cl)n1 [Example 103, 6-Chloro-8-(2-chloro-6-methoxy-pyridin-3-yl)-1-methyl-9H-pyrido[3,4-b]indole] | 1.9 | > 80
27 | COc1ccc(-c2cc(Cl)cc3c2[nH]c2c(C)nccc23)c(C)n1 [Example 104, 6-Chloro-8-(6-methoxy-2-methyl-pyridin-3-yl)-1-methyl-9H-pyrido[3,4-b]indole] | 3.5 | > 80
28 | CCc1nccc2c1[nH]c1c(-c3ccc(Cl)nc3Cl)cc(Cl)cc12 [Example 105, 6-Chloro-8-(2,6-dichloro-pyridin-3-yl)-1-ethyl-9H-pyrido[3,4-b]indole] | 1 | 50 to 80
